Test results published in PMC10709440, “High-throughput ligand profile characterization in novel cell lines expressing seven heterologous insect olfactory receptors for the detection of volatile plant biomarkers” (Scientific Reports, 2023).

Tests used:
Drosophila OR13a = target: T1, Drosophila OR13a (Drosophila melanogaster, UniProt Q9VXL0); experiment: Calcium ion fluorescence (GCaMP6) assay, OR13a stable HEK293 cell line; assay type: cell-based; settings: for OR13a response (VUAA1-normalized) at 1 μM / OR13a response (VUAA1-normalized) at 10 μM / OR13a response (VUAA1-normalized) at 100 μM: OR13a cell line; for DF norm AVERAGE OR13a: threshold 0.05, below shown as 0
T1 construct: expressed in transfected cells
T1 sequence (Q9VXL0 1-418): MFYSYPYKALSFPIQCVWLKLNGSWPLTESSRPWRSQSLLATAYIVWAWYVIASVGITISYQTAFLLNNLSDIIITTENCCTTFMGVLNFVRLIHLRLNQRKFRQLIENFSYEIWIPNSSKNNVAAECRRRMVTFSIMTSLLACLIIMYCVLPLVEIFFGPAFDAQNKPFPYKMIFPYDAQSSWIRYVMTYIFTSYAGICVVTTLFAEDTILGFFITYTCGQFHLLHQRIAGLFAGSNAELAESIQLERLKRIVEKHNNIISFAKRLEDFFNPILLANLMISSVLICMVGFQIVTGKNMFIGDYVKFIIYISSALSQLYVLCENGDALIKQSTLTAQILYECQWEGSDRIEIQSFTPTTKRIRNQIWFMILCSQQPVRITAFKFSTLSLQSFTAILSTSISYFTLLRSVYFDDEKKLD
T1 sequence (Q9VNB5 1-486 partner): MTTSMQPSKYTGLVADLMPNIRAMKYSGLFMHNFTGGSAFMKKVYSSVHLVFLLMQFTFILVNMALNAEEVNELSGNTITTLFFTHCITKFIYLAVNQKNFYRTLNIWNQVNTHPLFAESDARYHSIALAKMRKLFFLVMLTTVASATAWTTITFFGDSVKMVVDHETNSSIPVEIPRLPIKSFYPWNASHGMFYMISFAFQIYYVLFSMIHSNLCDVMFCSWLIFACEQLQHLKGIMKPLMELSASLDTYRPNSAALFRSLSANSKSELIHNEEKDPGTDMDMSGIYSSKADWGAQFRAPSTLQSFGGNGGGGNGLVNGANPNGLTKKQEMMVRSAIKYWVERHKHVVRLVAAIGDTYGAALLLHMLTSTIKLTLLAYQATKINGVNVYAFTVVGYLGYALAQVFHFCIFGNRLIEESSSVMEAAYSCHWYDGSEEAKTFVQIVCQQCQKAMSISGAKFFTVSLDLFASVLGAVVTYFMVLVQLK
How it was run: (§1)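 Responses are VUAA1-normalized ΔF: each VOC-evoked calcium signal, (FMAX−F0)/F0 over 30 s after injection, divided by the same line's mean 50 µM VUAA1 response. Cells were doxycycline-induced HEK293 with GCaMP6 and the cognate Drosophila OR, in HEPES buffer pH 7.3; ligands tested 0.01–100 μM.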

Drosophila OR71a = target: T2, Drosophila OR71a (Drosophila melanogaster, UniProt Q9VUK5); experiment: Calcium ion fluorescence (GCaMP6) assay, OR71a stable HEK293 cell line; assay type: cell-based; settings: for OR71a response (VUAA1-normalized) at 1 μM / OR71a response (VUAA1-normalized) at 10 μM / OR71a response (VUAA1-normalized) at 100 μM / Average response: OR71a cell line; for Average response: VUAA1-normalized response, mean of biological replicates; for DF norm AVERAGE OR71a: threshold 0.05, below shown as 0
T2 construct: expressed in transfected cells
T2 sequence (Q9VUK5 1-378): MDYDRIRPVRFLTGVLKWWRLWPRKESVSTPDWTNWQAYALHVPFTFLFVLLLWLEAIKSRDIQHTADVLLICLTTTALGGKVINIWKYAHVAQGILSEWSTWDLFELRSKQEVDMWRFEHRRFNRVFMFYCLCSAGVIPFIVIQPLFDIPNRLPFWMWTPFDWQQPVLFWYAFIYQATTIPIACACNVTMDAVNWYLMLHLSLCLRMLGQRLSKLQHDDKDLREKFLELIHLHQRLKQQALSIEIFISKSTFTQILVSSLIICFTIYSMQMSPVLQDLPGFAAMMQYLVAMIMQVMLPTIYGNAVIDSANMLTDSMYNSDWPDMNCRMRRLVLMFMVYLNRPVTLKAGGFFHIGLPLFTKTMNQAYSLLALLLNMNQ
T2 sequence (Q9VNB5 1-486 partner): T1 sequence (Q9VNB5 1-486 partner)
How it was run: as §1

[1] = ligand concentration 1 (unit not given)
[2] = ligand concentration 10 (unit not given)
[3] = ligand concentration 100 (unit not given)

Compound: Cc1ccc(C(C)C)cc1 [p-cymene]
- activation at 1 µM (Drosophila OR13a; HEK293, read-out: OR13a Average response (VUAA1-normalized), 1 μM VOC, 50 μM VUAA1 = 1, responses not exceeding 0.05 considered 0): 0%
- activation at 10 µM (Drosophila OR13a; HEK293, read-out: OR13a Average response (VUAA1-normalized), 10 μM VOC, 50 μM VUAA1 = 1, responses not exceeding 0.05 considered 0): 0%
- activation at 100 µM (Drosophila OR13a; HEK293, read-out: OR13a Average response (VUAA1-normalized), 100 μM VOC, 50 μM VUAA1 = 1, responses not exceeding 0.05 considered 0): 0%
- OR13a response (VUAA1-normalized) at 1 μM (Drosophila OR13a; VOC concentration 1 μM): 0.00
- OR13a response (VUAA1-normalized) at 10 μM (Drosophila OR13a; VOC concentration 10 μM): 0.00
- OR13a response (VUAA1-normalized) at 100 μM (Drosophila OR13a; VOC concentration 100 μM): 0.00
- DF norm AVERAGE OR13a (Drosophila OR13a; [1]): 0
- DF norm AVERAGE OR13a (Drosophila OR13a; [2]): 0
- DF norm AVERAGE OR13a (Drosophila OR13a; [3]): 0
- OR71a response (VUAA1-normalized) at 1 μM (Drosophila OR71a; VOC concentration 1 μM): 0.00
- OR71a response (VUAA1-normalized) at 10 μM (Drosophila OR71a; VOC concentration 10 μM): 0.00
- OR71a response (VUAA1-normalized) at 100 μM (Drosophila OR71a; VOC concentration 100 μM): 0.00
- Average response (Drosophila OR71a; cc. 1 µM): 0.00
- Average response (Drosophila OR71a; cc. 10 µM): 0.023
- Average response (Drosophila OR71a; cc. 100 µM): 0.00
- DF norm AVERAGE OR71a (Drosophila OR71a; [1]): 0
- DF norm AVERAGE OR71a (Drosophila OR71a; [2]): 0
- DF norm AVERAGE OR71a (Drosophila OR71a; [3]): 0

Compound: CC/C=C\CCO [E-3-hexenol]
- OR13a response (VUAA1-normalized response) (Drosophila OR13a; VOC concentration 1 μM): 0.00
- OR13a response (VUAA1-normalized response) (Drosophila OR13a; VOC concentration 10 μM): 0.00
- OR13a response (VUAA1-normalized response) (Drosophila OR13a; VOC concentration 100 μM): 0.07
- OR71a response (VUAA1-normalized response) (Drosophila OR71a; VOC concentration 1 μM): 0.00
- OR71a response (VUAA1-normalized response) (Drosophila OR71a; VOC concentration 10 μM): 0.00
- OR71a response (VUAA1-normalized response) (Drosophila OR71a; VOC concentration 100 μM): 0.00

Compound: CC/C=C\CCO [Z-3-hexenol]
- OR13a response (VUAA1-normalized) at 1 μM (Drosophila OR13a; VOC concentration 1 μM): 0.00
- OR13a response (VUAA1-normalized) at 10 μM (Drosophila OR13a; VOC concentration 10 μM): 0.06
- OR13a response (VUAA1-normalized) at 100 μM (Drosophila OR13a; VOC concentration 100 μM): 0.00
- OR71a response (VUAA1-normalized) at 1 μM (Drosophila OR71a; VOC concentration 1 μM): 0.00
- OR71a response (VUAA1-normalized) at 10 μM (Drosophila OR71a; VOC concentration 10 μM): 0.00
- OR71a response (VUAA1-normalized) at 100 μM (Drosophila OR71a; VOC concentration 100 μM): 0.00
